Assay: Pharmacokinetics in rats
Type: in vivo, rat
Settings: male, Sprague-Dawley, rat, plasma
Method: We further evaluated the in vivo PK properties of compound ZLC491 and the counterpart 4m (without F substitution) in rats, and the results were summarized in Table 2. […] The PK profiles of F-containing compound ZLC491 were further improved.
The pharmacokinetic investigation was taken by Shanghai Medicilon Inc. (Project Code: 26048-23001-NG). Sprague–Dawley male rats (Specific pathogen Free (SPF), provided by Zhejiang Vital River Laboratory Animal Technology Co. Ltd.) were dosed with ZLC491 solution formulation (5% DMSO, 10% Solutol, 85% normal saline, 2.5 mg/kg for intravenous dose, 10 mg/kg for oral dose) or compound 4m solution formulation (5% DMSO, 10% Solutol, 85% (20%HP-β-CD), 2.5 mg/kg for intravenous dose, 10 mg/kg for oral dose). Blood samples were collected at 0.083, 0.25, 0.5, 1, 2, 4, 8, and 24 h in intravenous administration, 0.25, 0.5, 1, 2, 4, 6, 8, and 24 h in oral administration. The blood samples were collected from sets of three rats at each time point in labeled microcentrifuge tubes containing heparin sodium as an anticoagulant. Plasma samples were separated by centrifugation (2–8 °C, 6800g for 6 min) within 1 h and stored below −80 °C until bioanalysis. All samples were processed for analysis by precipitation using acetonitrile and analyzed with a partially validated LC/MS/MS method. Pharmacokinetic parameters were calculated using the noncompartmental analysis tool of WinNonlin Enterprise software.

N#Cc1ccc(N[C@H]2CC[C@H](N(C(=O)NCc3ccccc3)c3ccc(N4CCN(C5CCN(c6cc7c(cc6F)C(=O)N(C6CCC(=O)NC6=O)C7=O)CC5)CC4)cc3)CC2)nc1 (some centres unmarked) [ZLC491, 3-Benzyl-1-((1r,4r)-4-((5-cyanopyridin-2-yl)amino)cyclohexyl)-1-(4-(4-(1-(2-(2,6-dioxopiperidin-3-yl)-6-fluoro-1,3-dioxoisoindolin-5-yl)piperidin-4-yl)piperazin-1-yl)phenyl)urea]
AUC(0-t) at 24 h (iv, i.v. 2.5 mg/kg): 6820 ng·h/mL
Cmax at 24 h (iv, i.v. 2.5 mg/kg): 4590 ng/mL
clearance at 24 h (iv, i.v. 2.5 mg/kg): 6.38 mL/min/kg
half-life at 24 h (iv, i.v. 2.5 mg/kg): 2.46 h
bioavailability at 24 h (oral bioavailability, p.o. 10 mg/kg vs i.v. 2.5 mg/kg): 46.8%
AUC(0-t) at 24 h (po, p.o. 10 mg/kg): 12800 ng·h/mL
Cmax at 24 h (po, p.o. 10 mg/kg): 1310 ng/mL
half-life at 24 h (po, p.o. 10 mg/kg): 2.92 h
